Source: patent US9637724B2, “Selective binding of biological targets to solid phase ureides” (AGENCY FOR SCIENCE, TECHNOLOGY AND RESEARCH, priority 2012, dated 2017)

Legend:
minute virus of mice = assay: Co-precipitation of minute virus of mice, infectivity testing of supernatant; conditions: 10% allantoin, physiological conditions, 10^10 particles per mL
Excerpt: A viral culture containing 10^10 particles per mL of minute virus of mice was coprecipitated under physiological conditions by addition of allantoin in an amount of 10%. Infectivity testing of the supernatant documented removal of 99.9% of the virus.

Attenuated Dengue virus = assay: Co-precipitation of attenuated Dengue virus with allantoin; conditions: 7% allantoin, 600 mM NaCl, pH 6.0
Method: Attenuated Dengue virus was combined with 7% allantoin at 600 mM NaCl, pH 6.0. The supernatant was removed. The virus was recovered by dissolving the allantoin in 50 mM Hepes, pH 7.0. Recovery was estimated by immunoassay to be 70-80%.

endotoxin [1] = assay: Antibody recovery and endotoxin reduction from an IgG-endotoxin mixture
Method: Endotoxin was added to 1 mg/mL human IgG in 5 mM HEPES 100 mM NaCl pH 7.0 to 22,000 EU/ml. 2% (w/v) allantoin were added to aliquots of this mixture and allowed to mix for 15 minutes at room temperature. The suspension was clarified by centrifugation. Protein and endotoxin concentrations were measured to calculate antibody recovery and endotoxin removal. 2% (w/v) allantoin reduced endotoxin twofold. Antibody recovery was unaffected by the amount of allantoin. In a subsequent series of experiments, the amount of allantoin was increased in increments, up to 10%. Antibody recovery diminished gradually to about 93% at 10% allantoin, while endotoxin removal efficiency increased to about 99%. These experiments illustrate that the use of excessive amounts of allantoin can result in a loss of some proteins. In such cases, the person of skill in the art can make an informed decision as to the most productive balance of endotoxin removal versus protein recovery, and adjust the availability of the solid phase ureide accordingly. Additional experiments with proteins ranging in size from about 12 kDa to 1 MDa indicated a definite trend whereby the loss of protein increases with increasing protein size.

[2] = Allantoin plus ethacridine treatment of IgG cell culture harvest, then TREN / T-butyl column; conditions: 1% allantoin with 0.01% ethacridine
Method: Cell-containing mammalian cell culture harvest containing a monoclonal IgG was treated by allantoin affinity with 1% allantoin in combination with 0.01% ethacridine. The sample, at a pH of about 7.2 and a conductivity of about 13.5 mS, these conditions corresponding with so-called physiological conditions, was passed over a column packed chromatography media including equal amounts of the metal affinity ligand TREN (BioWorks TREN hi-sub) and a hydrophobic ligands (Macroprep T-butyl). Antibody recovery following the previous steps was 99%. DNA was reduced by 3.5 logs, and virus was reduced by 4-5 logs. In addition, the treated sample was sparking clear, with a turbidity of about 2.0 NTU, indicating near-total removal of particulates.
The form or example 15 was followed except increasing the amount of allantoin over the course of a series of experiments, including 2%, 4%, and 8%. Antibody recovery decreased in a roughly linear fashion in inverse proportion to the amount of allantoin. Whereas recovery at 1% (example 15) was 99%, recovery at 8% was about 87%.
IgG processed as described in examples 15 and 16 was analyzed by size exclusion chromatography. […] Where aggregate content following example 15 was about 5%, it was reduced to about 1.3% at 8% allantoin. Aggregate content of membrane clarified cell harvest lacking allantoin was about 19%. […]

Bacteriophage M13 = assay: Co-precipitation of bacteriophage M13 from phage cell culture supernatant with allantoin
Method: Phage cell culture supernatant was co-precipitated by addition of allantoin at a weight to volume ratio of 7%. pH was about 7.0. Conductivity was 20 mS. The virus was recovered by dissolving the allantoin in 50 mM Hepes, 150 mM NaCl, pH 7.0. Phage recovery was about 70%. Greater than 99% of proteins and small molecule contaminants were eliminated with the supernatant.
Example 1 was repeated at pH values of 5.0, 6.0, and 8.0% allantoin.
Example 1 was repeated at NaCl concentrations corresponding to conductivity values of 40, 60, 80, and 100 mS/cm. These salt concentrations correspond with about 400, 600, 800, and 1000 mM NaCl. […] Optimal co-precipitation occurred at 400 mM NaCl. This was interpreted to reflect suppression of mutual electrostatic repulsion among viral particles with the result of supporting higher packing density of the particles on the ureide surface.
Example 1 was repeated with 3%, 5%, and 10% allantoin. Co-precipitation efficiency, as judged by removal from supernatant, was directly correlated with allantoin concentration. Recovery increased from about 31% to 57% to 91% respectively.
Phage cell culture supernatant was precipitated with 7% allantoin at 400 mM NaCl, pH 6.0. The majority of proteins and small molecule contaminants were eliminated with the supernatant. Recovery was estimated to be in excess of 90%. […]

[3] = Cell culture harvest treated with allantoin and ethacridine, then iminodiacetic acid / TREN / butyl particle assembly; conditions: 1% allantoin, 0.025% ethacridine
Method: 1 L of cell culture harvest was treated by addition of 1% allantoin and 0.025% ethacridine and incubated stirring for 15 minutes, after which the cells and other particulates were removed by centrifugation. The supernatant was passed through an assembly containing equal proportions of styrene divinylbenzene particles substituted with iminodiacetic acid, agarose particles substituted with TREN, and acrylate particles substituted with butyl residues, with a combined volume of 50 mL, dimensions of 2.6×10 cm, and a flow rate of 25 mL/min. Initial aggregate content of greater than 12% was reduced to less than 0.1%. Excess ethacridine was removed. Host protein contamination was reduced 60%. DNA, as measured by qPCR was reduced by 6 logs. Antibody recovery was 99%.

murine leukemia virus [4] = assay: Enhancement of virus inactivation at low pH, virus infectivity; conditions: pH 4 plus 10% allantoin
Method: A cell culture supernatant containing about 10^10 particles of murine leukemia virus per mL was split into 10 aliquots. Half of the aliquots were treated by reduction of pH to 4 for the purpose of inactivating the virus. The other half was treated by the same reduction or pH plus the addition of 10% allantoin. Aliquots representing treatment at 1, 5, 10, 15, and 60 minutes were evaluated for virus infectivity. At 1 minute, inactivation absent allantoin was 1.2 logs versus 2.4 logs with allantoin. At 5 minutes, inactivation absent allantoin was 3.2 logs versus 4.5 logs with allantoin. At 10 minutes, inactivation absent allantoin was 4.3 logs versus 5.4 logs with allantoin. At 15 minutes, inactivation absent allantoin was 5.1 logs versus 5.6 logs with allantoin. At 60 minutes, inactivation absent allantoin was 5.4 logs versus 5.6 logs with allantoin. Since the sensitivity of the infectivity assay is about 5.5 logs, it is likely that the allantoin inclusion increases the level of inactivation at all time points, in addition to accelerating inactivation. It will be apparent to the person of skill in the art that combination of allantoin with other virus inactivation methods will likely have a similar enhancing effect.

endotoxin [5] = assay: Endotoxin removal during purification of a DNA plasmid from E. coli lysate; conditions: 10% allantoin, 15 minutes
Method: Powdered allantoin was added to a final concentration of 10% in a filtered E. coli lysate containing a DNA plasmid. The mixture was stirred for 15 minutes then the solid allantoin was removed by microfiltration. 96.7% of the endotoxin was removed with the allantoin. 80% of the DNA plasmid was recovered in the filtrate. […] From the results given in the previous Examples, it will be apparent to the person of ordinary skill, that in the case of plasmids produced in mammalian cells, allantoin treatment will offer the additional benefit of virus removal.

endotoxin [6] = assay: Comparison of allantoin and uric acid for removal of endotoxin from human IgG solution; conditions: 1, 2 and 4% (w/v), 13,000 EU/ml, 6.7 mg/mL human IgG, 15 minutes
Method: Endotoxin was added to a 6.7 mg/mL solution of human IgG in 5 mM Hepes, 100 mM NaCl, pH 7.0 to a final concentration of 13,000 EU/ml. 1, 2 and 4% (w/v) of either allantoin or uric acid was added to aliquots of this mixture and allowed to mix for 15 minutes at room temperature. As a control, equal amounts of potato starch were added to a separate series. Finally, the reaction mixtures were clarified by centrifugation. Protein and endotoxin concentrations were measured to calculate antibody recovery and endotoxin removal. There was no reduction in endotoxin with the addition of starch. Uric acid produced a 4-fold reduction at all concentrations. Allantoin reduced endotoxin from 5-10-fold across the experiments (low to high). Antibody recovery was greater than 90% throughout. Besides the poorer performance of uric acid, the fact that results were unchanged as a function of the amount of uric acid are puzzling, and highlight allantoin as being a preferable ureide to begin with.

murine leukemia virus [7] = assay: Co-precipitation of murine leukemia virus, infectivity testing of supernatant; conditions: 10% allantoin, physiological conditions, 10^10 particles per mL
Excerpt: A viral culture containing 10^10 particles per mL of murine leukemia virus was coprecipitated under physiological conditions by addition of allantoin in an amount of 10%. Infectivity testing of the supernatant documented removal of 99.9% of the virus.

[8] = cited from earlier work
[9] = test system: purified DNA from salmon sperm; assay: Treatment of purified DNA with allantoin; conditions: antibody-containing protein preparations, previous examples
Method: A 1 mg/mL preparation of purified DNA from salmon sperm was treated with 5% allantoin. More than 95% of the DNA remained soluble in the supernatant. This highlights the utility of separating virus or endotoxin contaminants from DNA preparations, such as plasmid preparations, which is otherwise extremely difficult because all three bind strongly to electropositive surfaces such as anion exchangers. […] The apparent discrepancy appears to be resolved by allantoin having little or no inherent affinity for DNA, but a very high affinity for DNA associated with other molecule, especially including DNA-compaction proteins or other compound associations of DNA with chromosomal substructures particularly including nucleosomes and their prokaryotic analogues. This further highlights the point that applications to purification of polynucleotides will likely benefit in particular from being conducted at high salt concentrations and/or the presence of organic modulators that discourage nonspecific formation of polynucleotide complexes with contaminants.

endotoxin [10] = assay: Endotoxin reduction from an ovalbumin solution; conditions: start about 50 EU/mL
Method: A sample of ovalbumin in 50 mM phosphate, 100 mM NaCl, pH 7.2, contaminated with about 50 EU/mL of endotoxin, was saturated with 3% allantoin, incubated for 15 minutes, following which the precipitate was removed by membrane filtration. Endotoxin content of the supernatant was reduced by more than 95%, to less than 2 EU per mL. The experiment was repeated with 10% allantoin.

NC(=O)NC1NC(=O)NC1=O (stereo not drawn) [allantoin]
removal of the virus (infectivity testing of supernatant) (minute virus of mice): 99.9% | Host protein contamination reduced by (Attenuated Dengue virus): 99.3% | endotoxin reduction (endotoxin [1]; 2% (w/v) allantoin, 22,000 EU/ml, 1 mg/mL human IgG, 15 minutes): twofold | endotoxin removal efficiency (endotoxin [1]; 10% allantoin): about 99% | DNA reduced by [2]: 3.5 logs | virus reduced by [2]: 4-5 logs | virus eliminated in the precipitate (Bacteriophage M13; 5% allantoin, pH about 7.0, about 15 mS): About 60% | proteins and small molecule contaminants eliminated with the supernatant (Bacteriophage M13; 7% allantoin, pH about 7.0, 20 mS): Greater than 99% | DNA as measured by qPCR reduced by [3]: 6 logs | Host protein contamination reduced [3]: 60% | virus inactivation (murine leukemia virus [4]; 1 minute): 2.4 logs | virus inactivation (murine leukemia virus [4]; 5 minutes): 4.5 logs | virus inactivation (murine leukemia virus [4]; 10 minutes): 5.4 logs | virus inactivation (murine leukemia virus [4]; 15 minutes): 5.6 logs | virus inactivation (murine leukemia virus [4]; 60 minutes): 5.6 logs | endotoxin removed with the allantoin (endotoxin [5]): 96.7% | reduction in endotoxin (endotoxin [6]): 5-10 fold | removal of the virus (infectivity testing of supernatant) (murine leukemia virus [7]): 99.9% | saturation concentration ([8]; aqueous solutions): about 36 mM | DNA levels reduced by [9]: 98 to 99% | Endotoxin content of the supernatant reduced by (endotoxin [10]; 3% allantoin, 15 minutes): more than 95% | Endotoxin reduced by (endotoxin [10]; 10% allantoin): more than 99.5%

O=c1[nH]c(=O)c2[nH]c(=O)[nH]c2[nH]1 [uric acid]
reduction in endotoxin (endotoxin [6]): 4 fold

O=C1CNC(=O)N1 [hydantoin]
solubility relative to allantoin ([8]; times more soluble than allantoin): roughly 10 times
